Test results reported in article PMC5716070 (International Journal of Neuropsychopharmacology, 2017).
Converted amounts (≈) assume the structure as drawn. “And” between values parts separate entries of the source, which are not always exact repeats. Equal values may be shown once. Read-outs that look alike come from different tables or passages of the source.

Columns and labels:
SERT = conditions: cited from earlier work
NET = conditions: cited from earlier work
clinical = conditions: human, plasma, po, 60 mg
[1] = clinical dose, ref Nogami et al., 2013

CCN(CC)C(=O)C1(c2ccccc2)CC1CN (stereo not shown) [milnacipran]
SERT occupancy (SERT; [1]): low occupancy | NET occupancy (NET; [1]): low occupancy

CNCC[C@H](Oc1cccc2ccccc12)c1cccs1 [duloxetine]
concentration at 6 h (clinical): 80.8 ng/mL | SERT occupancy (SERT; 20 mg, ref Takano et al., 2006): 71.3% | SERT occupancy (SERT; 60 mg, ref Takano et al., 2006): 81.8% | EC50 for SERT occupancy (SERT; ref Abanades et al., 2011): 0.00262 ± 0.00093 µg/mL | EC50 for SERT occupancy (SERT; ref Takano et al., 2006): 0.0037 µg/mL | SERT occupancy (SERT; single dose 40 mg, ref Takano et al., 2006): 80.6% and ~80%

CNCCC=C1c2ccccc2CCc2ccccc21 [nortriptyline]
EC50 (plasma drug concentration inducing 50% NET occupancy) (NET; chronically administered 75–200 mg, patients with MDD, ref Takano et al., 2014): 0.0798 µg/mL (≈ 0.303 µM) | EC50 (plasma drug concentration inducing 50% NET occupancy) (NET; single low dose (10–75 mg), healthy human volunteers, ref Sekine et al., 2010): 0.0598 µg/mL (≈ 0.227 µM)
